One assay has as its system P-4E-BP1 (T37/46). The assay is described as follows: Cell based AlphaLISA assay, inhibition of P-4E-BP1 (T37/46) (mTORC1 substrate phosphorylation) in MDA-MB-468 cells. The settings on record: Homo sapiens, MDA-MB-468, 4 h, AlphaLISA, two to four hours at 37° C., read-out: pIC50 for Inhibition of mTORC1 and mTORC2 Substrate Phosphorylation, P-4E-BP1-(T37/46) (converted). A digest of the protocol:
(§1)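 IC50s come from control-normalized curve fits of duplicate Alpha signals. Cell lysates were probed with SureFire Ultra kits for mTORC1 substrates 4E-BP1 T37/46 and P70S6K T389 and mTORC2 substrate Akt S473 in MDA-MB-468 cells exposed to inhibitor.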

The next assay relates to P-P70S6K (T389). The assay is described as follows: Cell based AlphaLISA assay, inhibition of P-P70S6K (T389) (mTORC1 substrate phosphorylation) in MDA-MB-468 cells. The settings on record: Homo sapiens, 4 h, AlphaLISA, two to four hours at 37° C., read-out: pIC50 for Inhibition of mTORC1 and mTORC2 Substrate Phosphorylation, P-P70S6K-(T389) (converted). A digest of the protocol: as §1
Background: In Alpha technology, singlet oxygen from a donor bead excites a nearby acceptor bead.

In another assay the test system is P-Akt (S473). The assay is described as follows: Cell based AlphaLISA assay, inhibition of P-Akt (S473) (mTORC2 substrate phosphorylation) in MDA-MB-468 cells. The settings on record: Homo sapiens, MDA-MB-468, 4 h, AlphaLISA, two to four hours at 37° C., read-out: pIC50 for Inhibition of mTORC1 and mTORC2 Substrate Phosphorylation, p-AKT 1/2/3 -(S473) (converted). An outline of the steps:
as §1

With `CO[C@H]1C[C@@H]2CC[C@@H](C)[C@@](O)(O2)C(=O)C(=O)N2CCCC[C@H]2C(=O)O[C@H]([C@H](C)C[C@@H]2CC[C@@H](OCCCCc3cn(CCOCCOCCOCCOCCOCCOCCOCCOCCC(=O)N4CCN(c5cc(-n6nc(-c7ccc8oc(N)nc8c7)c7c(N)ncnc76)ncn5)CC4)nn3)[C@H](OC)C2)CC(=O)[C@H](C)/C=C(\C)[C@@H](O)[C@@H](OC)C(=O)[C@H](C)C[C@H](C)/C=C/C=C/C=C/1C` [Example 95], the IC50 is less than 3.16 nM with P-4E-BP1 (T37/46), less than 1 nM in the assay with P-P70S6K (T389) and 3.16 to 31.6 nM in the assay with P-Akt (S473).

Take `COC(=O)N[C@H]1C[C@@H]2CC[C@@H](C)[C@@](O)(O2)C(=O)C(=O)N2CCCC[C@H]2C(=O)O[C@H]([C@H](C)C[C@@H]2CC[C@@H](OCCCCc3cn(CCOCCOCCOCCOCCOCCOCCOCCOCCC(=O)N4CCN(c5ccc(-n6c(=O)n(C)c7cnc8ccc(-c9ccc(OC)nc9)cc8c76)cc5C(F)(F)F)CC4)nn3)[C@H](OC)C2)CC(=O)[C@H](C)/C=C(\C)[C@@H](O)[C@@H](OC)C(=O)[C@H](C)CC(C)/C=C/C=C/C=C/1C` (stereo partly drawn) [Example 72]: the IC50 with P-4E-BP1 (T37/46) was less than 3.16 nM; in the assay on P-P70S6K (T389) it was less than 1 nM; in the assay on P-Akt (S473) it was less than 3.16 nM.

With `CO[C@H]1C[C@@H]2CC[C@@H](C)[C@@](O)(O2)C(=O)C(=O)N2CCCC[C@H]2C(=O)O[C@H]([C@H](C)C[C@@H]2CC[C@@H](OCCOCc3cn(CCOCCOCCOCCOCCOCCOCCC(=O)N4CC(Cn5nc(-c6ccc7oc(N)nc7c6)c6c(N)ncnc65)C4)nn3)[C@H](OC)C2)CC(=O)[C@H](C)/C=C(\C)[C@@H](O)[C@@H](OC)C(=O)[C@H](C)C[C@H](C)/C=C/C=C/C=C/1C` [Example 57], the IC50 in the assay on P-4E-BP1 (T37/46) is less than 3.16 nM; in the assay on P-P70S6K (T389) it was less than 1 nM; in the assay with P-Akt (S473), 3.16 to 31.6 nM.

`CO[C@H]1C[C@@H]2CC[C@@H](C)[C@@](O)(O2)C(=O)C(=O)N2CCCC[C@H]2C(=O)O[C@H]([C@H](C)C[C@@H]2CC[C@@H](O)[C@H](OC)C2)C[C@@H](OC)[C@H](C)/C=C(\C)[C@@H](O)[C@@H](OC)C(=NOCc2cn(CCOCCOCCOCCOCCOCCOCCC(=O)NCCCCn3nc(-c4ccc5oc(N)nc5c4)c4c(N)ncnc43)nn2)[C@H](C)C[C@H](C)/C=C/C=C/C=C/1C` [Example 13]: the values for the IC50 in the assay on P-4E-BP1 (T37/46), in the assay on P-P70S6K (T389) and with P-Akt (S473) were 3.16 to 31.6 nM, 1 to 10 nM and 31.6 to 1000 nM, respectively.

`CO[C@H]1C[C@@H]2CC[C@@H](C)[C@@](O)(O2)C(=O)C(=O)N2CCCC[C@H]2C(=O)O[C@H]([C@H](C)C[C@@H]2CC[C@@H](O)[C@H](OC)C2)C[C@@H](O)[C@H](C)/C=C(\C)[C@@H](O)[C@@H](OC)C(=NOCc2cn(CCOCCOCCOCCOCCOCCOCCOCCOCCC(=O)N3CCc4cc(Cn5nc(-c6ccc7oc(N)nc7c6)c6c(N)ncnc65)ccc4C3)nn2)[C@H](C)C[C@H](C)/C=C/C=C/C=C/1C` [Example 87]: the IC50 was 3.16 to 31.6 nM with P-4E-BP1 (T37/46), less than 1 nM in the assay with P-P70S6K (T389) and greater than 1000 nM with P-Akt (S473).

Regarding `CO[C@H]1C[C@@H]2CC[C@@H](C)[C@@](O)(O2)C(=O)C(=O)N2CCCC[C@H]2C(=O)O[C@H]([C@H](C)C[C@@H]2CC[C@@H](OCc3cccc(-c4cnc(N5CCN(Cc6cn(CCOCCOCCOCCOCCOCCC(=O)NCCCCn7nc(-c8ccc9oc(N)nc9c8)c8c(N)ncnc87)nn6)CC5)nc4)c3)[C@H](OC)C2)CC(=O)[C@H](C)/C=C(\C)[C@@H](O)[C@@H](OC)C(=O)[C@H](C)C[C@H](C)/C=C/C=C/C=C/1C` [Example 20], the results for the IC50 in the assay on P-4E-BP1 (T37/46), in the assay on P-P70S6K (T389) and with P-Akt (S473) were less than 3.16 nM, less than 1 nM and 3.16 to 31.6 nM, respectively.

Regarding `CO[C@H]1C[C@@H]2CC[C@@H](C)[C@@](O)(O2)C(=O)C(=O)N2CCCC[C@H]2C(=O)O[C@H]([C@H](C)C[C@@H]2CC[C@H](n3cc(COC(=O)NCCOCCOCCOCCC(=O)NCc4cnc(N5CCN(c6ncc(C(=O)NCCCCn7nc(-c8ccc9oc(N)nc9c8)c8c(N)ncnc87)cn6)CC5)nc4)nn3)[C@H](OC)C2)CC(=O)[C@H](C)/C=C(\C)[C@@H](O)[C@@H](OC)C(=O)[C@H](C)C[C@H](C)/C=C/C=C/C=C/1C` [Example 183], the IC50 with P-4E-BP1 (T37/46) is less than 3.16 nM; in the assay on P-P70S6K (T389), less than 1 nM; in the assay with P-Akt (S473), 3.16 to 31.6 nM.

For `CO[C@H]1C[C@@H]2CC[C@@H](C)[C@@](O)(O2)C(=O)C(=O)N2CCCC[C@H]2C(=O)O[C@H]([C@H](C)C[C@@H]2CC[C@@H](O)[C@H](OC)C2)C[C@@H](O)[C@H](C)/C=C(\C)[C@@H](O)[C@@H](OC)C(=NOCc2cn(CCOCCOCCOCCOCCOCCOCCC(=O)NCCCCn3nc(-c4cc5cc(O)ccc5[nH]4)c4c(N)ncnc43)nn2)[C@H](C)C[C@H](C)/C=C/C=C/C=C/1C` [Example 93], the values for the IC50 with P-4E-BP1 (T37/46), in the assay on P-P70S6K (T389) and in the assay on P-Akt (S473) were 3.16 to 31.6 nM, 1 to 10 nM and greater than 1000 nM, respectively.

For the molecule `CO[C@H]1C[C@@H]2CC[C@@H](C)[C@@](O)(O2)C(=O)C(=O)N2CCCC[C@H]2C(=O)O[C@H]([C@H](C)C[C@@H]2CC[C@H](n3cc(CCCC(=O)NCCOCCOCCOCCC(=O)NCCOCCOCCC(=O)NCCCCn4nc(-c5ccc6oc(N)nc6c5)c5c(N)ncnc54)nn3)[C@H](OC)C2)C/C(=N/OC(C)(C)C)[C@H](C)/C=C(\C)[C@@H](O)[C@@H](OC)C(=O)[C@H](C)C[C@H](C)/C=C/C=C/C=C/1C` [Example 176], the IC50 was greater than 1000 nM with P-4E-BP1 (T37/46), 10 to 1000 nM with P-P70S6K (T389) and greater than 1000 nM with P-Akt (S473).

For `CCO[C@@H]1C[C@@H]([C@H](C)C[C@@H]2CC[C@H](n3cc(COC(=O)NCCOCCOCCOCCC(=O)NCCOCCOCCC(=O)NCCCCn4nc(-c5cc6cc(O)ccc6[nH]5)c5c(N)ncnc54)nn3)[C@H](OC)C2)OC(=O)[C@@H]2CCCCN2C(=O)C(=O)[C@]2(O)O[C@@H](CC[C@H]2C)C[C@H](OC)/C(C)=C/C=C/C=C/[C@@H](C)C[C@@H](C)C(=O)[C@H](OC)[C@H](O)/C(C)=C/[C@H]1C` [Example 148], the IC50 was greater than 1000 nM in the assay on P-4E-BP1 (T37/46), 10 to 1000 nM with P-P70S6K (T389) and greater than 1000 nM in the assay with P-Akt (S473).

Regarding `CO[C@H]1C[C@@H]2CC[C@@H](C)[C@@](O)(O2)C(=O)C(=O)N2CCCC[C@H]2C(=O)O[C@H]([C@H](C)C[C@@H]2CC[C@H](n3cc(COC(=O)NCCOCCOCCOCCC(=O)NCCOCCOCCC(=O)NCCCCn4nc(-c5ccc6oc(N)nc6c5)c5c(N)ncnc54)nn3)[C@H](OC)C2)C/C(=N/OCc2ccccc2)[C@H](C)/C=C(\C)[C@@H](O)[C@@H](OC)C(=O)[C@H](C)C[C@H](C)/C=C/C=C/C=C/1C` [Example 154], the IC50 in the assay on P-4E-BP1 (T37/46), in the assay on P-P70S6K (T389) and in the assay with P-Akt (S473) was greater than 1000 nM in each case.

Consider `CO[C@H]1C[C@@H]2CC[C@@H](C)[C@@](O)(O2)C(=O)C(=O)N2CCCC[C@H]2C(=O)O[C@H]([C@H](C)C[C@@H]2CC[C@H](n3cc(CCCC(=O)NCCOCCOCCOCCC(=O)NCCOCCOCCOCCC(=O)NCCCCn4nc(-c5ccc6oc(N)nc6c5)c5c(N)ncnc54)nn3)[C@H](OC)C2)C/C(=N/OC(C)(C)C)[C@H](C)/C=C(\C)[C@@H](O)[C@@H](OC)C(=O)[C@H](C)C[C@H](C)/C=C/C=C/C=C/1C` [Example 177], for which the IC50 is greater than 1000 nM in the assay on P-4E-BP1 (T37/46), 10 to 1000 nM in the assay on P-P70S6K (T389) and greater than 1000 nM in the assay with P-Akt (S473).

For the origin of these results see US20230093861A1, “RAPAMYCIN ANALOGS AS MTOR INHIBITORS” (Revolution Medicines, Inc., priority 2017, published 2023).
